Values joined by “and” are separate entries in the source; they are usually repeats but may differ in a detail not shown here. Equal values may be shown once. Toxic doses and inconclusive results are not listed. Peptide text beside a SMILES is read from it.
System: P388 leukemia ip, CD2F1 mice, survival T/C
Test: NCI In Vivo Anticancer Drug Screen. Data for tumor model P388 Leukemia (intraperitoneal) in CD2F1 (CDF1) mice
Details: endpoint: median survival time, higher = longer survival
How it was run: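 Mice carrying the transplanted tumor received test compound or vehicle. Survival was recorded in each group, and the value is the treated-group measurement divided by that of the vehicle-treated control group.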

[1] = dose: 50.0 mg/kg/injection, schedule: Q01DX009 (ip), vehicle: saline with Tween-80
[2] = dose: 100.0 mg/kg/injection, schedule: Q01DX009 (ip), vehicle: saline with Tween-80
[3] = dose: 200.0 mg/kg/injection, schedule: Q01DX009 (ip), vehicle: saline with Tween-80
[4] = dose: 50.0 mg/kg/injection, schedule: Q01DX005 (ip), vehicle: Klucel (hydroxypropylcellulose) (HPC)
[5] = dose: 100.0 mg/kg/injection, schedule: Q01DX005 (ip), vehicle: Klucel (hydroxypropylcellulose) (HPC)
[6] = dose: 200.0 mg/kg/injection, schedule: Q01DX005 (ip), vehicle: Klucel (hydroxypropylcellulose) (HPC)
[7] = dose: 12.5 mg/kg/injection, schedule: Q01DX009 (ip), vehicle: saline with Tween-80
[8] = dose: 25.0 mg/kg/injection, schedule: Q01DX009 (ip), vehicle: saline with Tween-80
[9] = dose: 6.25 mg/kg/injection, schedule: Q01DX009 (ip), vehicle: Klucel (hydroxypropylcellulose) (HPC)
[10] = dose: 12.5 mg/kg/injection, schedule: Q01DX009 (ip), vehicle: Klucel (hydroxypropylcellulose) (HPC)
[11] = dose: 50.0 mg/kg/injection, schedule: Q01DX009 (ip), vehicle: saline
[12] = dose: 100.0 mg/kg/injection, schedule: Q01DX009 (ip), vehicle: saline
[13] = dose: 60.0 mg/kg/injection, schedule: Q01DX005 (ip), vehicle: saline
[14] = dose: 120.0 mg/kg/injection, schedule: Q01DX005 (ip), vehicle: saline
[15] = dose: 240.0 mg/kg/injection, schedule: Q01DX005 (ip), vehicle: saline
[16] = dose: 60.0 mg/kg/injection, schedule: Q01DX005 (ip), vehicle: saline with Tween-80
[17] = dose: 120.0 mg/kg/injection, schedule: Q01DX005 (ip), vehicle: saline with Tween-80

SMILES: COc1ccc(CC2c3cc(OC)c(OC)c(OC)c3CC[N+]2(C)C)cc1Oc1ccc(CC2c3cc4c(c(OC)c3CCN2C)OCO4)cc1 (stereo unspecified)
- T/C (dose: 3.13 mg/kg/injection, schedule: Q04DX002 (ip), vehicle: saline): 99 % of control
- T/C (dose: 6.25 mg/kg/injection, schedule: Q04DX002 (ip), vehicle: saline): 103 % of control

SMILES: O=c1[nH]c2c(ccc3c[n+]([O-])ccc32)c2c1CCC2
- T/C [1]: 88 % of control
- T/C [2]: 100 % of control
- T/C [3]: 108 % of control

SMILES: CC(=O)c1c(O)c(C)c(O)c2c1OC1=Cc3c(c(C)nn3-c3ccccc3)C(=O)C12C (stereo unspecified)
- T/C (dose: 6.25 mg/kg/injection, schedule: Q01DX009 (ip), vehicle: gum acacia): 104 % of control and 108 % of control
- T/C (dose: 12.5 mg/kg/injection, schedule: Q01DX009 (ip), vehicle: gum acacia): 103 % of control and 105 % of control
- T/C (dose: 25.0 mg/kg/injection, schedule: Q01DX009 (ip), vehicle: gum acacia): 101 % of control and 105 % of control
- T/C (dose: 50.0 mg/kg/injection, schedule: Q01DX009 (ip), vehicle: gum acacia): 98 % of control and 101 % of control
- T/C (dose: 100.0 mg/kg/injection, schedule: Q01DX009 (ip), vehicle: gum acacia): 99 % of control and 93 % of control
- T/C (dose: 200.0 mg/kg/injection, schedule: Q01DX009 (ip), vehicle: gum acacia): 86 % of control and 90 % of control

SMILES: CNC(=O)c1ccccc1CNC(=S)Nc1cccc(C)c1
- T/C [4]: 98 % of control
- T/C [5]: 98 % of control
- T/C [6]: 95 % of control

SMILES: COc1cc(OC)c(NC(=S)Nc2cc(Cl)c(OC)cc2OC)cc1Cl
- T/C [1]: 106 % of control
- T/C [2]: 102 % of control
- T/C [3]: 103 % of control

SMILES: [Cu+2].[O-]c1ccc(Br)c2cccnc12.[O-]c1ccc(Br)c2cccnc12
- T/C [7]: 104 % of control
- T/C [8]: 100 % of control
- T/C (dose: 33.0 mg/kg/injection, schedule: Q04DX003 (ip), vehicle: saline with Tween-80): 90 % of control
- T/C [1]: 104 % of control

SMILES: CC(F)C(N)C(=O)O (stereo unspecified)
- T/C [9]: 108 % of control and 117 % of control
- T/C [10]: 110 % of control and 118 % of control
- T/C (dose: 25.0 mg/kg/injection, schedule: Q01DX009 (ip), vehicle: Klucel (hydroxypropylcellulose) (HPC)): 116 % of control
- T/C [11]: 106 % of control
- T/C [12]: 124 % of control

SMILES: COc1cc(OC)c2c(c1Cl)OCC2=O
- T/C (dose: 50.0 mg/kg/injection, schedule: Q01DX009 (ip), vehicle: saline sonified): 95 % of control
- T/C (dose: 100.0 mg/kg/injection, schedule: Q01DX009 (ip), vehicle: saline sonified): 104 % of control
- T/C (dose: 200.0 mg/kg/injection, schedule: Q01DX009 (ip), vehicle: saline sonified): 100 % of control

SMILES: CC(C)C(NC(=O)C1CCCN1)C(=O)O (stereo not drawn) (H-Pro-Val-OH; configuration not given here)
- T/C [11]: 103 % of control
- T/C [12]: 99 % of control
- T/C (dose: 200.0 mg/kg/injection, schedule: Q01DX009 (ip), vehicle: saline): 100 % of control

SMILES: O=C1c2ccccc2C(=O)c2c(O)c(O)cc(O)c21
- T/C [13]: 94 % of control
- T/C [14]: 91 % of control
- T/C [15]: 94 % of control

SMILES: Cn1cnc([N+](=O)[O-])c1Sc1ncccc1C(=O)O
- T/C [4]: 112 % of control
- T/C [5]: 114 % of control
- T/C [6]: 105 % of control

SMILES: CCCCCCCCCCCCCCCC[N+]1(CC)CCOCC1 (tested in a mixture with another compound)
- T/C (dose: 3.13 mg/kg/injection, schedule: Q01DX009 (ip), vehicle: Klucel (hydroxypropylcellulose) (HPC)): 96 % of control
- T/C [9]: 113 % of control
- T/C [10]: 115 % of control

SMILES: CN(C)c1ccc(N=C2C(c3ccccc3)=[N+]([O-])c3ccccc32)cc1
- T/C [16]: 93 % of control
- T/C [17]: 93 % of control
- T/C (dose: 240.0 mg/kg/injection, schedule: Q01DX005 (ip), vehicle: saline with Tween-80): 100 % of control

SMILES: CNC1C(O)C(NC)C2OC3(O)C(=O)CC(C)OC3OC2C1O (stereo unspecified)
- T/C (dose: 50.0 mg/kg/injection, schedule: Q04DX002 (ip), vehicle: saline with Tween-80): 101 % of control
- T/C (dose: 100.0 mg/kg/injection, schedule: Q01DX005 (ip), vehicle: saline): 101 % of control
- T/C (dose: 100.0 mg/kg/injection, schedule: Q04DX002 (ip), vehicle: saline with Tween-80): 101 % of control
- T/C (dose: 200.0 mg/kg/injection, schedule: Q01DX005 (ip), vehicle: saline): 100 % of control
- T/C (dose: 200.0 mg/kg/injection, schedule: Q04DX002 (ip), vehicle: saline with Tween-80): 98 % of control

SMILES: CCN(CC)c1nc(Cl)nc(Nc2ccc3cc(-c4ccccc4)c(=O)oc3c2)n1
- T/C [4]: 98 % of control
- T/C [5]: 95 % of control
- T/C [6]: 104 % of control

SMILES: O=Cc1c(-c2ccc(Cl)cc2)nc2n1CCS2
- T/C (dose: 100.0 mg/kg/injection, schedule: Q04DX002 (ip), vehicle: Klucel (hydroxypropylcellulose) (HPC)): 101 % of control
- T/C (dose: 400.0 mg/kg/injection, schedule: Q04DX002 (ip), vehicle: Klucel (hydroxypropylcellulose) (HPC)): 104 % of control

SMILES: Nc1cc(F)ccc1CC(=O)O
- T/C [13]: 103 % of control
- T/C [14]: 99 % of control
- T/C [15]: 99 % of control

SMILES: Cc1cc(O)c2c(c1)C(=O)C(c1c(O)c3c(C)cccc3oc1=O)=C(c1c(O)c3c(C)cccc3oc1=O)C2=O
- T/C (dose: 14.0 mg/kg/injection, schedule: Q01DX005 (ip), vehicle: Klucel (hydroxypropylcellulose) (HPC)): 92 % of control
- T/C (dose: 28.0 mg/kg/injection, schedule: Q01DX005 (ip), vehicle: Klucel (hydroxypropylcellulose) (HPC)): 91 % of control
- T/C (dose: 56.0 mg/kg/injection, schedule: Q01DX005 (ip), vehicle: Klucel (hydroxypropylcellulose) (HPC)): 89 % of control
- T/C (dose: 112.0 mg/kg/injection, schedule: Q01DX005 (ip), vehicle: Klucel (hydroxypropylcellulose) (HPC)): 89 % of control

SMILES: Cc1cc(-c2ccccc2)c2ccccc2c1N(CC(=O)O)S(=O)(=O)c1ccccc1
- T/C (dose: 100.0 mg/kg/injection, schedule: Q04DX003 (ip), vehicle: saline with Tween-80): 100 % of control
- T/C [3]: 115 % of control
- T/C (dose: 200.0 mg/kg/injection, schedule: Q04DX003 (ip), vehicle: saline with Tween-80): 100 % of control
- T/C (dose: 400.0 mg/kg/injection, schedule: Q04DX003 (ip), vehicle: saline with Tween-80): 90 % of control

SMILES: Cc1cc(=O)[nH]c2c3sc4ccccc4c(=O)c3c3ccccc3c12
- T/C (dose: 12.5 mg/kg/injection, schedule: Q04DX003 (ip), vehicle: Klucel (hydroxypropylcellulose) (HPC)): 99 % of control
- T/C (dose: 25.0 mg/kg/injection, schedule: Q04DX003 (ip), vehicle: Klucel (hydroxypropylcellulose) (HPC)): 99 % of control
- T/C (dose: 50.0 mg/kg/injection, schedule: Q04DX003 (ip), vehicle: Klucel (hydroxypropylcellulose) (HPC)): 95 % of control
- T/C (dose: 100.0 mg/kg/injection, schedule: Q04DX003 (ip), vehicle: Klucel (hydroxypropylcellulose) (HPC)): 98 % of control

SMILES: CSc1nccc2ccccc12
- T/C (dose: 12.5 mg/kg/injection, schedule: Q01DX009 (ip), vehicle: other): 96 % of control
- T/C (dose: 25.0 mg/kg/injection, schedule: Q01DX009 (ip), vehicle: other): 93 % of control
- T/C (dose: 50.0 mg/kg/injection, schedule: Q01DX009 (ip), vehicle: other): 118 % of control

SMILES: CCC(C)C1NC(=O)C2CCCN2C(=O)C(CC2CO2)OC(=O)CCNC(=O)C(C)N(C)C(=O)C(C(C)C)N(C)C1=O (stereo unspecified)
- T/C (dose: 1.56 mg/kg/injection, schedule: Q01DX005 (ip), vehicle: water): 100 % of control
- T/C (dose: 3.12 mg/kg/injection, schedule: Q01DX005 (ip), vehicle: water): 109 % of control

SMILES: C1=CSC(=C2SC=CS2)S1
- T/C (dose: 6.25 mg/kg/injection, schedule: Q01DX009 (ip), vehicle: saline with Tween-80): 106 % of control
- T/C [7]: 106 % of control and 97 % of control
- T/C [8]: 102 % of control and 110 % of control
- T/C [1]: 100 % of control and 106 % of control and 114 % of control
- T/C [2]: 108 % of control
- T/C [3]: 100 % of control

SMILES: c1ccc2c(c1)O[As](O[As]1Oc3ccccc3O1)O2
- T/C (dose: 2.5 mg/kg/injection, schedule: Q01DX009 (ip), vehicle: saline with Tween-80): 106 % of control
- T/C (dose: 5.0 mg/kg/injection, schedule: Q01DX009 (ip), vehicle: saline with Tween-80): 122 % of control
- T/C (dose: 20.0 mg/kg/injection, schedule: Q01DX009 (ip), vehicle: saline with Tween-80): 161 % of control

SMILES: N=C(N)c1ccc(OCCCCOc2ccc(N)cc2Cl)cc1
- T/C (dose: 30.0 mg/kg/injection, schedule: Q01DX005 (ip), vehicle: saline with Tween-80): 102 % of control
- T/C [16]: 106 % of control and 97 % of control
- T/C [17]: 105 % of control
